Assay results taken from US20130266535A1, “METHYL SALICYLATE-BASED ATTRACTANTS FOR VECTORS OF CITRUS GREENING DISEASE” (priority 2012, published 2013).

System: Diaphorina citri
Assay: Two-port T-olfactometer behavioral bioassay with synthetic chemicals vs. clean air (solvent-only wick)
Format: in vivo
Conditions: for Proportion of D. citri responding to treatment arm: non-infected female adults, treatment vs solvent control arm
Source text: A custom designed two-port divided T-olfactometer [Analytical Research Systems (ARS), Inc. Gainesville, Fla.] that has been thoroughly described in [98] was used to evaluate behavioral response of D. citri. Briefly, the olfactometer consisted of a 30 cm long glass tube with 3.5 cm internal diameter that is bifurcated into two equal halves with a Teflon strip forming a T-maze. Each half served as an arm of the olfactometer enabling the D. citri to make a choice between two potential odor fields. The olfactometer arms were connected to odor sources placed in 35 cm tall×15 cm wide dome shaped guillotine volatile collection chambers (GVCC) (ARS, Gainesville, Fla.) through Teflon-glass tube connectors. The odor sources comprised 14-16 week old Las-infected or non-infected C. sinensis plants placed in GVCC. Purified and humidified air was pushed through the GVCC via two pumps connected to an air delivery system (ARS, Gainesville, Fla.). A constant airflow of 0.1 L/min was maintained through both arms of the olfactometer. The olfactometer was housed within a temperature-controlled room and positioned vertically under a fluorescent 900-lux light bulb within a fiberboard box for uniform light diffusion. This positioning took advantage of the negative geotactic and positive phototactic response of D. citri.
D. citri adults were released individually into the inlet adapter at the base of the olfactometer. An odor source was randomly assigned to one of the arms of the olfactometer at the beginning of each bioassay and was reversed after every 30 insects to eliminate positional bias. Initially, D. citri adults were exposed to clean air vs. clean air in the olfactometer to verify the absence of positional bias. Thereafter, the behavioral response of non-infected or Las-infected D. citri was tested against non-infected versus Las-infected plants. D. citri adults were also exposed to non-infected grafted (sham grafted) vs. non-grafted-non-infected plants to determine the effects of grafting only on D. citri behavior. For each treatment, C. sinensis plants were grafted with C. aurantifolia budwood four months prior to initiating behavioral experiments. A minimum of 150 male or female D. citri adults were examined per treatment combination (five replications of 30 D. citri). Each D. citri that responded to odors was individually subjected to qPCR to determine Las infection status using the procedures described above.
MeSA was released in greater quantities from Las-infected plants than non-infected plants, while MeAN and D-limonene were released in greater quantities by non-infected than infected plants (See results). Therefore, the behavioral response of D. citri to these synthetic chemicals was tested. A known D. citri attractant, β-ocimene, was used as a positive control. All chemicals were obtained from Sigma Aldrich (St Louis, Mo.) with purities ranging between 97 and 99%. Purity of β-ocimene was 90% and contained a mixture of isomers comprising 20-25% limonene. Each treatment was dissolved in 100 μl of dichloromethane and pipetted onto a 2 cm Richmond cotton wick (Petty John Packaging, Inc. Concord, N.C.) at 0.001, 0.01, 0.1, 1.0, 10.0 and 100.0 μg dosages. The control treatment consisted of a cotton wick impregnated with solvent only. The solvent from both treatments was allowed to evaporate within a fume hood for 30 min prior to assays. The bioassay procedures with synthetic chemicals were identical to those described earlier for plant samples. However, in this case, treatments (odor sources) were placed into solid phase micro extraction chambers (SPMEC) (ARS, Gainesville, Fla.) instead of the GVCC described above. The SPMEC consists of a straight glass tube (17.5 cm long×2.5 cm internal diameter) supported with an inlet and outlet valve for incoming and outgoing air streams, respectively. […]

SMILES: COC(=O)c1ccccc1O [Methyl salicylate, methyl salicylate]
- Behavioral response of D. citri (attraction/repulsion) (0.001 μg dosage): attracted
- Behavioral response of D. citri (attraction/repulsion) (100 μg dosage): repelled
- Proportion of D. citri responding to treatment arm (dosage 0.001 μg on cotton wick): 54.00
- Proportion of D. citri responding to treatment arm (dosage 0.01 μg on cotton wick): 60.44
- Proportion of D. citri responding to treatment arm (dosage 0.1 μg on cotton wick): 54.76
- Proportion of D. citri responding to treatment arm (dosage 1.0 μg on cotton wick): 45.12
- Proportion of D. citri responding to treatment arm (dosage 10.0 μg on cotton wick): 41.03
- Proportion of D. citri responding to treatment arm (dosage 100.0 μg on cotton wick): 39.56

SMILES: C=C(C)[C@H]1CC=C(C)CC1 [D-limonene]
- Behavioral response of D. citri (attraction/repulsion) (100 μg dosage): attracted
- Proportion of D. citri responding to treatment arm (dosage 0.001 μg on cotton wick): 56.06
- Proportion of D. citri responding to treatment arm (dosage 0.01 μg on cotton wick): 60.87
- Proportion of D. citri responding to treatment arm (dosage 0.1 μg on cotton wick): 54.39
- Proportion of D. citri responding to treatment arm (dosage 1.0 μg on cotton wick): 54.65
- Proportion of D. citri responding to treatment arm (dosage 10.0 μg on cotton wick): 60.24
- Proportion of D. citri responding to treatment arm (dosage 100.0 μg on cotton wick): 61.54

SMILES: COC(=O)c1ccccc1N [Methyl anthranilate, methyl anthranilate]
- Behavioral response of D. citri (attraction/repulsion) (any of the dosages tested (0.001-100 μg)): did not attract or repel
- Proportion of D. citri responding to treatment arm (dosage 0.001 μg on cotton wick): 58.06
- Proportion of D. citri responding to treatment arm (dosage 0.01 μg on cotton wick): 57.14
- Proportion of D. citri responding to treatment arm (dosage 0.1 μg on cotton wick): 61.76
- Proportion of D. citri responding to treatment arm (dosage 1.0 μg on cotton wick): 57.33
- Proportion of D. citri responding to treatment arm (dosage 10.0 μg on cotton wick): 56.10
- Proportion of D. citri responding to treatment arm (dosage 100.0 μg on cotton wick): 52.27

SMILES: C=CC(C)=CCC=C(C)C [β-ocimene, reference compound]
- Behavioral response of D. citri (attraction/repulsion) (1-100 μg dosages): attractive
- Proportion of D. citri responding to treatment arm (dosage 0.001 μg on cotton wick): 52.22
- Proportion of D. citri responding to treatment arm (dosage 0.01 μg on cotton wick): 54.46
- Proportion of D. citri responding to treatment arm (dosage 0.1 μg on cotton wick): 53.19
- Proportion of D. citri responding to treatment arm (dosage 1.0 μg on cotton wick): 60.44
- Proportion of D. citri responding to treatment arm (dosage 10.0 μg on cotton wick): 61.46
- Proportion of D. citri responding to treatment arm (dosage 100.0 μg on cotton wick): 62.77
